Experimental data reported in PMC12691742, “Anti-Cancer Outcome of Glucocorticoid Receptor Transrepression by Synephrine Derivatives in Hematological Malignancies” (International Journal of Molecular Sciences, 2025).
Like-named read-outs stand apart in the source and are kept apart here.

Legend:
[1] = target: T1, GR (Homo sapiens, UniProt P04150); test: GR radioligand binding assay, competition with [3H]Dex in K562 cells
T1 construct: endogenous in cells; host or cells: K562
T1 sequence (P04150 1-777): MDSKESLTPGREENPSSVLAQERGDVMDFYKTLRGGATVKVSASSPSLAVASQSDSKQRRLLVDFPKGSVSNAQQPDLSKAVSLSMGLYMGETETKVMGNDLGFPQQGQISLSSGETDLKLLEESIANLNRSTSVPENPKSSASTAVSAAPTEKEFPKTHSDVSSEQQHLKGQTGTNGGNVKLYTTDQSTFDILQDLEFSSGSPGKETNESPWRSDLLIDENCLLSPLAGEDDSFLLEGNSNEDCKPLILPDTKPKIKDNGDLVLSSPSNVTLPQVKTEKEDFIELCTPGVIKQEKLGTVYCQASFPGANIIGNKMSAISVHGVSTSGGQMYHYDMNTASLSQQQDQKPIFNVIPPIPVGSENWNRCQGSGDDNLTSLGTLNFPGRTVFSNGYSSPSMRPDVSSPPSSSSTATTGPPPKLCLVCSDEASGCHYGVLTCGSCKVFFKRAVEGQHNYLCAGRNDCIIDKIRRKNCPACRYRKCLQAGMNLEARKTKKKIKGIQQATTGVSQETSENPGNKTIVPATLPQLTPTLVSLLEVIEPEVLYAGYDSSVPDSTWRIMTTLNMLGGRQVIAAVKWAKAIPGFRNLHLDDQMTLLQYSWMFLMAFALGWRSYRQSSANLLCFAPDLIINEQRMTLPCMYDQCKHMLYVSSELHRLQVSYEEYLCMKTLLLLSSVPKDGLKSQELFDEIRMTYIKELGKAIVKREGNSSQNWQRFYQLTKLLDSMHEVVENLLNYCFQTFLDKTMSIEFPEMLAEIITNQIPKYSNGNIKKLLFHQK
Procedure: (A,B). […] The stability of the complex was simulated using molecular dynamics in the GROMACS program. (C) GR binding affinity was estimated using a radioligand binding assay. […] Cell lysate radioactivity was measured using a RackBeta 1215 LC (LKB Wallac, Turku, Finland) spectrometer for 4 min. […] The experiments were performed in triplicate (n = 3).
After 90 min of incubation, the cells were washed twice by centrifugation in cold serum-free medium (1500 rpm, 5 min). The cells were then lysed with RIPA buffer (50 mM Tris (pH 8.0), 150 mM NaCl, 1 mM ethylenediaminetetraacetic acid, 0.1% sodium dodecyl sulfate, 0.5% sodium deoxycholate, 1% triton-X100, 10% glycerin, and protease inhibitor) for 20 min. Lysates were transferred to scintillation liquid, and radioactivity was measured using a RackBeta 1215 LC spectrometer for 4 min. […] IC50 was determined using GraphPad Prism software, Ver.7.0. […] “Top” meant the highest value in dpm and was equal to 100%, while the “bottom” was considered as the lowest value (0%). […] The IC50 values for each ligand were determined by plotting these curves. The experiments were performed in triplicate.

[2] = system: GR phosphorylated by Ser211 in K562 and Granta cells; test: Western blot of nuclear phospho-GR (Ser211); assay type: cell-based; details: 10 h; Dex 10 µM, 4S-C2 50 µM, 8S-E3 50 µM, 10S-E2 15 µM, 13S-G2 25 µM
Procedure: Figure 3 Effects of synephrine derivatives on GR transactivation in Granta lymphoma and K562 leukemia cells. (A) Q-PCR analysis of FKBP51, GILZ, and DDIT4 mRNA expression in K562 and Granta cells. […] The Q-PCR results were normalized to the expression of the housekeeping gene RPL27 and are presented as fold changes compared to the control. The mean ± SD was calculated for three individual samples/condition (n = 3). Statistically significant differences compared to the control: * p < 0.05, ** p < 0.01. (B) The levels of the nuclear fraction of phospho-GR (Ser211) were determined using Western blot analysis (n = 3; characteristic images are presented in the figure). Histone H3 was used as a loading control.
Western blot analysis was performed as previously described. Proteins were resolved using SDS-PAGE. Membranes were blocked with 5% nonfat milk solution and then incubated with primary antibodies against phosphorylated GR (pGR, Ser211) (“Santa Cruz Biotechnology”, Santa Cruz, CA, USA) overnight at 4 °C. To verify equal protein loading and adequate transfer, the membranes were probed with Histone H3 antibodies (“Cell Signaling”, Boston, MA, USA). Goat anti-rabbit IgGs (“Jackson Immuno Research”, West Grove, PA, USA) were used as secondary antibodies. Signals were detected using ECL reagent and an ImageQuant LAS4000 system (“GE HealthCare”, Chicago, IL, USA). ImageJ 1.54h software was used for densitometry. The experiments were performed in triplicate.
7 K562, pGR nuclear 5 Granta, pGR nuclear
Supplementary Figure S 22. Quantification of Western blot analysis. K562 and Granta cells […]
μM) and 13S-G2 (25 μ M) for 10 h. Quantification of Western blot anal ysis of p- GR protein levels was done usin g Im a ge J f ree so ftwar e. Statisticall y significant diff eren ces as compared to control: […]

[3] = system: primary lymphoblasts from pediatric patients with acute lymphoblastic leukemia; test: Resazurin cytotoxicity assay in primary lymphoblasts; assay type: cell-based; details: Homo sapiens
From the text: Peripheral blood samples were collected from 1–10-year-old pediatric patients with newly diagnosed ALL in the acute phase of the disease or from adult healthy volunteers at N.N. Blokhin National Research Center of Oncology. The Ethical Committee of the N.N. Blokhin National Research Center of Oncology approved this study, and written informed consents were provided. […] were isolated by centrifugation with Ficoll-Isopaque (“Paneco”, Russia) and then cultured in the RPMI-1640 media (“Paneco”, Russia) supplemented with 20% FBS (“Biowest”, France), 2 mM L-glutamine, 0.5 ME/mL penicillin and 0.5 µg/mL streptomycin (“Paneco”, Russia) and 10 mg/L phytohaemagglutinin (“Paneco”, Moscow, Russia).
Isolated PBMCs were seeded into 96-well plates (2 × 10^6 cells/well) and treated with 10S-E2 at a wide range of concentrations (2–200 µM). Cell viability was analyzed after 24 h of incubation, assessing metabolic activity with the addition of 0.177 mg/mL of resazurin at 8–10 h before the end of the incubation. Fluorescence intensity was evaluated using a Fluoroskan FL microplate fluorimeter (“Thermo Scientific”, Waltham, MA, USA). The IC50 values were determined using GraphPad Prism (Ver.7.0) software. The experiments were performed in triplicate.

For `CCCCCCNCC(O)c1ccc(OCc2ccccc2)cc1` (stereo not drawn) [10S-E2, 1-[4-(benzyloxy)phenyl]-2-(hexylamino)ethanol], the IC50 [1] was 0.56 µM, the “GR phosphorylation level at Ser211” value [2] was “did not affect the phosphorylation” and the IC50 ([3]; 24 h, patient code 3, 24 h, read-out: IC50 of cytotoxic effect) was 40.9 ± 3.12 µM. For the same molecule, the IC50 ([3]; 24 h, patient code 4, 24 h, read-out: IC50 of cytotoxic effect) was 43.2 ± 9.48 µM, the IC50 ([3]; 24 h, patient code 7, 24 h, read-out: IC50 of cytotoxic effect) was 43 ± 0.71 µM and the IC50 ([3]; 24 h, patient code 8, 24 h, read-out: IC50 of cytotoxic effect) was 60.6 ± 0.97 µM. It also gave an IC50 ([3]; 24 h, patient code 10, 24 h, read-out: IC50 of cytotoxic effect) of 71.3 ± 5.59 µM, an IC50 ([3]; 24 h, patient code 12, 24 h, read-out: IC50 of cytotoxic effect) of 75.7 ± 4.63 µM and an IC50 ([3]; 24 h, patient code 20, 24 h, read-out: IC50 of cytotoxic effect) of 64.2 ± 0.55 µM. For the same molecule, the IC50 ([3]; 24 h, patient code 21, 24 h, read-out: IC50 of cytotoxic effect) was 49.4 ± 1.95 µM, the IC50 ([3]; 24 h, patient code 23, 24 h, read-out: IC50 of cytotoxic effect) was 55.2 ± 2.25 µM and the IC50 ([3]; 24 h, patient code 24, 24 h, read-out: IC50 of cytotoxic effect) was 70.3 ± 2.54 µM. For the same molecule, the IC50 ([3]; 24 h, patient code 25, 24 h, read-out: IC50 of cytotoxic effect) was 80.3 ± 4.09 µM, the IC50 ([3]; 24 h, patient code 30, 24 h, read-out: IC50 of cytotoxic effect) was 52.4 ± 0.07 µM and the IC50 ([3]; 24 h, patient code 31, 24 h, read-out: IC50 of cytotoxic effect) was 63.2 ± 1.42 µM. For the same molecule, the IC50 ([3]; 24 h, patient code 33, 24 h, read-out: IC50 of cytotoxic effect) was 67.6 ± 4.02 µM, the IC50 ([3]; 24 h, patient code 34, 24 h, read-out: IC50 of cytotoxic effect) was 55 ± 1.91 µM and the IC50 ([3]; 24 h, patient code 35, 24 h, read-out: IC50 of cytotoxic effect) was 65.9 ± 0.27 µM. The IC50 ([3]; 24 h, patient code 37, 24 h, read-out: IC50 of cytotoxic effect) was 69.8 ± 3.66 µM, the IC50 ([3]; 24 h, patient code 39, 24 h, read-out: IC50 of cytotoxic effect) was 71.3 ± 2.59 µM and the IC50 ([3]; 24 h, patient code 46, 24 h, read-out: IC50 of cytotoxic effect) was 71.5 ± 2.08 µM. It also gave an IC50 ([3]; primary lymphoblast samples from 19 patients diagnosed with ALL, read-out: IC50 of cytotoxic effect, range over samples) of 40 to 70 µM.
